PMC9571063 (Molecules, 2022)

Key:
[1] = biological target: T1, ABL1(Y253F)-phosphorylated (Homo sapiens, UniProt P00519, Y253F); assay: KINOMEscan; type: binding; settings: read-out: Percent Control
T1 construct: purchased Eurofins DiscoverX KINOMEscan (scanMAX 468)

ABL1-phosphorylated = biological target: T2, ABL1-phosphorylated (Homo sapiens, UniProt P00519); assay: KINOMEscan; type: binding; settings: read-out: Percent Control
T2 construct: purchased Eurofins DiscoverX KINOMEscan (scanMAX 468)

ACVR1 = biological target: T3, ACVR1 (Homo sapiens, UniProt Q04771); assay: KINOMEscan; type: binding; settings: read-out: Percent Control
T3 construct: purchased Eurofins DiscoverX KINOMEscan (scanMAX 468)

ACVR2A = biological target: T4, ACVR2A (Homo sapiens, UniProt P27037); assay: KINOMEscan; type: binding; settings: read-out: Percent Control
T4 construct: purchased Eurofins DiscoverX KINOMEscan (scanMAX 468)

AKT2 = biological target: T5, AKT2 (Homo sapiens, UniProt P31751); assay: KINOMEscan; type: binding; settings: read-out: Percent Control
T5 construct: purchased Eurofins DiscoverX KINOMEscan (scanMAX 468)

AMPK-alpha2 = biological target: T6, AMPK-alpha2 (Homo sapiens, UniProt P54646); assay: KINOMEscan; type: binding; settings: read-out: Percent Control
T6 construct: purchased Eurofins DiscoverX KINOMEscan (scanMAX 468)

BIKE = biological target: T7, BIKE (Homo sapiens, UniProt Q9NSY1); assay: KINOMEscan; type: binding; settings: read-out: Percent Control
T7 construct: purchased Eurofins DiscoverX KINOMEscan (scanMAX 468)

CDK2 = biological target: T8, CDK2 (Homo sapiens, UniProt P24941); assay: KINOMEscan; type: binding; settings: read-out: Percent Control
T8 construct: purchased Eurofins DiscoverX KINOMEscan (scanMAX 468)

CDKL5 = biological target: T9, CDKL5 (Homo sapiens, UniProt O76039); assay: KINOMEscan; type: binding; settings: read-out: Percent Control
T9 construct: purchased Eurofins DiscoverX KINOMEscan (scanMAX 468)

CSNK2A1 = biological target: T10, CSNK2A1 (Homo sapiens, UniProt P68400); assay: KINOMEscan; type: binding; settings: read-out: Percent Control
T10 construct: purchased Eurofins DiscoverX KINOMEscan (scanMAX 468)

CSNK2A2 = biological target: T11, CSNK2A2 (Homo sapiens, UniProt P19784); assay: KINOMEscan; type: binding; settings: read-out: Percent Control
T11 construct: purchased Eurofins DiscoverX KINOMEscan (scanMAX 468)

DAPK2 = biological target: T12, DAPK2 (Homo sapiens, UniProt Q9UIK4); assay: KINOMEscan; type: binding; settings: read-out: Percent Control
T12 construct: purchased Eurofins DiscoverX KINOMEscan (scanMAX 468)

EGFR(S752-I759del) = biological target: T13, EGFR(S752-I759del) (Homo sapiens, UniProt P00533, DEL752-759); assay: KINOMEscan; type: binding; settings: read-out: Percent Control
T13 construct: purchased Eurofins DiscoverX KINOMEscan (scanMAX 468)

EPHA4 = biological target: T14, EPHA4 (Homo sapiens, UniProt P54764); assay: KINOMEscan; type: binding; settings: read-out: Percent Control
T14 construct: purchased Eurofins DiscoverX KINOMEscan (scanMAX 468)

EPHA7 = biological target: T15, EPHA7 (Homo sapiens, UniProt Q15375); assay: KINOMEscan; type: binding; settings: read-out: Percent Control
T15 construct: purchased Eurofins DiscoverX KINOMEscan (scanMAX 468)

FGFR2 = biological target: T16, FGFR2 (Homo sapiens, UniProt P21802); assay: KINOMEscan; type: binding; settings: read-out: Percent Control
T16 construct: purchased Eurofins DiscoverX KINOMEscan (scanMAX 468)

GRK1 = biological target: T17, GRK1 (Homo sapiens, UniProt Q15835); assay: KINOMEscan; type: binding; settings: read-out: Percent Control
T17 construct: purchased Eurofins DiscoverX KINOMEscan (scanMAX 468)

GSK3A = biological target: T18, GSK3A (Homo sapiens, UniProt P49840); assay: KINOMEscan; type: binding; settings: read-out: Percent Control
T18 construct: purchased Eurofins DiscoverX KINOMEscan (scanMAX 468)

HIPK1 = biological target: T19, HIPK1 (Homo sapiens, UniProt Q86Z02); assay: KINOMEscan; type: binding; settings: read-out: Percent Control
T19 construct: purchased Eurofins DiscoverX KINOMEscan (scanMAX 468)

IGF1R = biological target: T20, IGF1R (Homo sapiens, UniProt P08069); assay: KINOMEscan; type: binding; settings: read-out: Percent Control
T20 construct: purchased Eurofins DiscoverX KINOMEscan (scanMAX 468)

LCK = biological target: T21, LCK (Homo sapiens, UniProt P06239); assay: KINOMEscan; type: binding; settings: read-out: Percent Control
T21 construct: purchased Eurofins DiscoverX KINOMEscan (scanMAX 468)

MAP3K2 = biological target: T22, MAP3K2 (Homo sapiens, UniProt Q9Y2U5); assay: KINOMEscan; type: binding; settings: read-out: Percent Control
T22 construct: purchased Eurofins DiscoverX KINOMEscan (scanMAX 468)

NEK3 = biological target: T23, NEK3 (Homo sapiens, UniProt P51956); assay: KINOMEscan; type: binding; settings: read-out: Percent Control
T23 construct: purchased Eurofins DiscoverX KINOMEscan (scanMAX 468)

NEK6 = biological target: T24, NEK6 (Homo sapiens, UniProt Q9HC98); assay: KINOMEscan; type: binding; settings: read-out: Percent Control
T24 construct: purchased Eurofins DiscoverX KINOMEscan (scanMAX 468)

p38-alpha = biological target: T25, p38-alpha (Homo sapiens, UniProt Q16539); assay: KINOMEscan; type: binding; settings: read-out: Percent Control
T25 construct: purchased Eurofins DiscoverX KINOMEscan (scanMAX 468)

PAK3 = biological target: T26, PAK3 (Homo sapiens, UniProt O75914); assay: KINOMEscan; type: binding; settings: read-out: Percent Control
T26 construct: purchased Eurofins DiscoverX KINOMEscan (scanMAX 468)

PDPK1 = biological target: T27, PDPK1 (Homo sapiens, UniProt O15530); assay: KINOMEscan; type: binding; settings: read-out: Percent Control
T27 construct: purchased Eurofins DiscoverX KINOMEscan (scanMAX 468)

PHKG2 = biological target: T28, PHKG2 (Homo sapiens, UniProt P15735); assay: KINOMEscan; type: binding; settings: read-out: Percent Control
T28 construct: purchased Eurofins DiscoverX KINOMEscan (scanMAX 468)

PIK3CA(H1047Y) = biological target: T29, PIK3CA(H1047Y) (Homo sapiens, UniProt P42336, H1047Y); assay: KINOMEscan; type: binding; settings: read-out: Percent Control
T29 construct: purchased Eurofins DiscoverX KINOMEscan (scanMAX 468)

PIM1 = biological target: T30, PIM1 (Homo sapiens, UniProt P11309); assay: KINOMEscan; type: binding; settings: read-out: Percent Control
T30 construct: purchased Eurofins DiscoverX KINOMEscan (scanMAX 468)

PLK1 = biological target: T31, PLK1 (Homo sapiens, UniProt P53350); assay: KINOMEscan; type: binding; settings: read-out: Percent Control
T31 construct: purchased Eurofins DiscoverX KINOMEscan (scanMAX 468)

RET(V804M) = biological target: T32, RET(V804M) (Homo sapiens, UniProt P07949, V804M); assay: KINOMEscan; type: binding; settings: read-out: Percent Control
T32 construct: purchased Eurofins DiscoverX KINOMEscan (scanMAX 468)

RIPK4 = biological target: T33, RIPK4 (Homo sapiens, UniProt P57078); assay: KINOMEscan; type: binding; settings: read-out: Percent Control
T33 construct: purchased Eurofins DiscoverX KINOMEscan (scanMAX 468)

SGK2 = biological target: T34, SGK2 (Homo sapiens, UniProt Q9HBY8); assay: KINOMEscan; type: binding; settings: read-out: Percent Control
T34 construct: purchased Eurofins DiscoverX KINOMEscan (scanMAX 468)

SLK = biological target: T35, SLK (Homo sapiens, UniProt Q9H2G2); assay: KINOMEscan; type: binding; settings: read-out: Percent Control
T35 construct: purchased Eurofins DiscoverX KINOMEscan (scanMAX 468)

[2] = biological target: T36, TYK2(JH1domain-catalytic) (Homo sapiens, UniProt P29597); assay: KINOMEscan; type: binding; settings: read-out: Percent Control
T36 construct: TYK2(JH1domain-catalytic); purchased Eurofins DiscoverX KINOMEscan (scanMAX 468)

[3] = biological target: T37, TYK2(JH2domain-pseudokinase) (Homo sapiens, UniProt P29597); assay: KINOMEscan; type: binding; settings: read-out: Percent Control
T37 construct: TYK2(JH2domain-pseudokinase); purchased Eurofins DiscoverX KINOMEscan (scanMAX 468)

ULK1 = biological target: T38, ULK1 (Homo sapiens, UniProt O75385); assay: KINOMEscan; type: binding; settings: read-out: Percent Control
T38 construct: purchased Eurofins DiscoverX KINOMEscan (scanMAX 468)

WEE2 = biological target: T39, WEE2 (Homo sapiens, UniProt P0C1S8); assay: KINOMEscan; type: binding; settings: read-out: Percent Control
T39 construct: purchased Eurofins DiscoverX KINOMEscan (scanMAX 468)

YSK1 = biological target: T40, YSK1 (Homo sapiens, UniProt O00506); assay: KINOMEscan; type: binding; settings: read-out: Percent Control
T40 construct: purchased Eurofins (KINOMEscan, DiscoverX)

ZAP70 = biological target: T41, ZAP70 (Homo sapiens, UniProt P43403); assay: KINOMEscan; type: binding; settings: read-out: Percent Control
T41 construct: purchased Eurofins (KINOMEscan, DiscoverX)

MCF7 = tested on: MCF7; design: method as in ref 14 (a number printed in a supplementary file, which may have a reference list of its own: not looked up in the article's list); settings: DB18[a], footnote not given; read-out: Cytotoxic studies IC50 MCF7; cited from earlier work

T24 sequence (Q9HC98 whole entry): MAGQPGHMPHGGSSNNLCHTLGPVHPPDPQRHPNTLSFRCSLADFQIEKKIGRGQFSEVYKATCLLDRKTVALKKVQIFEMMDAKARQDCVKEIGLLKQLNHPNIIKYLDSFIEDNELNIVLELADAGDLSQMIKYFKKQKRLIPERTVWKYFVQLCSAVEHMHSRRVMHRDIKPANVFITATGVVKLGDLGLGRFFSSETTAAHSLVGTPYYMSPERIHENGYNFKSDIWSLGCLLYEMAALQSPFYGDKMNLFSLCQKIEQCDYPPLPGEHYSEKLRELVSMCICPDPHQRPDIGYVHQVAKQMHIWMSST
T14 sequence (P54764 20-986): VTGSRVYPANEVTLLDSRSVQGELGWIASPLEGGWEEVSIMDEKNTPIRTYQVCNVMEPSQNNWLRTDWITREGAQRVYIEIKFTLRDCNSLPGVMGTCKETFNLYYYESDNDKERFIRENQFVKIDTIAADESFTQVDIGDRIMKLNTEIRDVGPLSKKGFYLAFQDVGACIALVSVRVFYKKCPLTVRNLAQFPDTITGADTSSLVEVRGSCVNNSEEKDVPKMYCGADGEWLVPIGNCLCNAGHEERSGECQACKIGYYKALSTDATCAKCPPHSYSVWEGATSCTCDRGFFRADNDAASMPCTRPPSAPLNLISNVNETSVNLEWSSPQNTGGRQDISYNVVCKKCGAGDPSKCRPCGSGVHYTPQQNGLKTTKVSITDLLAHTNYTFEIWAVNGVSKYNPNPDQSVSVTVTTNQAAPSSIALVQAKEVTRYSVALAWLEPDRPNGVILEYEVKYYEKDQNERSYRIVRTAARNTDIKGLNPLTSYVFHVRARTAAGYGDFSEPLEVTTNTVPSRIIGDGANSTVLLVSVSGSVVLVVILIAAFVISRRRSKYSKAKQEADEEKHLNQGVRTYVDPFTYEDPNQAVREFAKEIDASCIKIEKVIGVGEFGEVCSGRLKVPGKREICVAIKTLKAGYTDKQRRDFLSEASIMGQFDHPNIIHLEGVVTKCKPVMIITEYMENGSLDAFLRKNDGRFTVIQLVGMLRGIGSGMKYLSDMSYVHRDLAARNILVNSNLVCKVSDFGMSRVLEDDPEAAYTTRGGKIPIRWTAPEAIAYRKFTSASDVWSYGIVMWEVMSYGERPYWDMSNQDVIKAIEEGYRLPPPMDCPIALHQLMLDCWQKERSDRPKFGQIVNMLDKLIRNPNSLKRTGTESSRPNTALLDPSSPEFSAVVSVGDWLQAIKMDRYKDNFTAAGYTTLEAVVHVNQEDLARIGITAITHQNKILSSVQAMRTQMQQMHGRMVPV
T9 sequence (O76039 whole entry): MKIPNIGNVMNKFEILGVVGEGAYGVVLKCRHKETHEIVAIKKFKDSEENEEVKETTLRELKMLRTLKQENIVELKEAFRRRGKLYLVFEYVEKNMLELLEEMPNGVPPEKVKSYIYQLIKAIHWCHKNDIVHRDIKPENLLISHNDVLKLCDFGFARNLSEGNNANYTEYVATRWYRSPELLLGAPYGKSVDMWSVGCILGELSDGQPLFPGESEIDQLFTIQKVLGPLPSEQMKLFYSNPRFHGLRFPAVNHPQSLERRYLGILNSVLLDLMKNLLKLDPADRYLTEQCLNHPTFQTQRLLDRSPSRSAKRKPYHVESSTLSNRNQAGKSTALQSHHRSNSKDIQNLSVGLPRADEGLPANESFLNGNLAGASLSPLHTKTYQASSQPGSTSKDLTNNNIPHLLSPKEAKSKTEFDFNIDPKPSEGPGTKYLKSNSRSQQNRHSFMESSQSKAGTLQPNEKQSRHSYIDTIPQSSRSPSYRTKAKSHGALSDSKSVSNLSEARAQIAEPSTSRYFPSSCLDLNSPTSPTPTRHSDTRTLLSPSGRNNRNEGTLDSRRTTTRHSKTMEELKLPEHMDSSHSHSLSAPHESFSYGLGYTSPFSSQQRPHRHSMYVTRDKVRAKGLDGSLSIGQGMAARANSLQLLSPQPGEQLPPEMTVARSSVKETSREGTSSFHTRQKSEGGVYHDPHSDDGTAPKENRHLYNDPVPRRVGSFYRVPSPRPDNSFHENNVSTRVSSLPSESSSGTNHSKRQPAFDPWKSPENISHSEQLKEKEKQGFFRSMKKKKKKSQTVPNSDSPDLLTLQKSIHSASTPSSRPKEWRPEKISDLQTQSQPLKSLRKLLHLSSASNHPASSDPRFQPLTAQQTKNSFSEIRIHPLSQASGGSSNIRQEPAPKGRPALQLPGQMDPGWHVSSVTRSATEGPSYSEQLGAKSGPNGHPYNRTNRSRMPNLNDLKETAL
T15 sequence (Q15375 28-998): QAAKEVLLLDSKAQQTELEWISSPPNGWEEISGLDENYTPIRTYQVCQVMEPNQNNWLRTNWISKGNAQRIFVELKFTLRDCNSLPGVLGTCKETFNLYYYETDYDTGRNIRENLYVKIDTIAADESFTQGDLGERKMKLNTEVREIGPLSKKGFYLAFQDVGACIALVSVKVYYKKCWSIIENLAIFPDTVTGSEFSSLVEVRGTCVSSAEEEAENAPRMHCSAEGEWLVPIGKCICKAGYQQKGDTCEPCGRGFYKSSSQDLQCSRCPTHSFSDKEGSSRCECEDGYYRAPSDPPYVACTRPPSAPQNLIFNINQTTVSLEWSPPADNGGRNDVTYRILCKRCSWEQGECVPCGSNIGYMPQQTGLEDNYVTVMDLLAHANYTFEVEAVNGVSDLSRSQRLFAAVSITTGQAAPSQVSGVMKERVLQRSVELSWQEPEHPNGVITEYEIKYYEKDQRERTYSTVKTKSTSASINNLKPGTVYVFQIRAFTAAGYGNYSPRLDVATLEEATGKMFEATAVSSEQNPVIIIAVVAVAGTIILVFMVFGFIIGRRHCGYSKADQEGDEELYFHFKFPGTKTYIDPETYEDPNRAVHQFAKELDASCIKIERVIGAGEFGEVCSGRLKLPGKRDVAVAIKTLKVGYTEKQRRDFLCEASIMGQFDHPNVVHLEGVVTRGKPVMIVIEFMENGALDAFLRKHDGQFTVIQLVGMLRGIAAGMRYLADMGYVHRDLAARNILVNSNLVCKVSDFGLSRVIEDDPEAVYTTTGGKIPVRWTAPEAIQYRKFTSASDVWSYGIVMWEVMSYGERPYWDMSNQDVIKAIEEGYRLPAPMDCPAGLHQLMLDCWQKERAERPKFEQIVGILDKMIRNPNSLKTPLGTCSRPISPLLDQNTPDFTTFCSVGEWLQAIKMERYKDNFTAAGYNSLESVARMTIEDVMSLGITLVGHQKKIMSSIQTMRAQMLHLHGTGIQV
T30 sequence (P11309 whole entry): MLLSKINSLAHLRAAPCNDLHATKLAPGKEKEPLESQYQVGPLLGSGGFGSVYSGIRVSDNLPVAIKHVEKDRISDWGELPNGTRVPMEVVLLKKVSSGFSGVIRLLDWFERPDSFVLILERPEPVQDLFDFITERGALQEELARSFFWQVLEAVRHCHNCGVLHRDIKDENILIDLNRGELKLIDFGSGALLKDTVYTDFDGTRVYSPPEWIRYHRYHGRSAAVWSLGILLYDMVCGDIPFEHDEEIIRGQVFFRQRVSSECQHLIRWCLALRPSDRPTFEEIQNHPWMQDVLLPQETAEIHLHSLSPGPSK
T11 sequence (P19784 whole entry): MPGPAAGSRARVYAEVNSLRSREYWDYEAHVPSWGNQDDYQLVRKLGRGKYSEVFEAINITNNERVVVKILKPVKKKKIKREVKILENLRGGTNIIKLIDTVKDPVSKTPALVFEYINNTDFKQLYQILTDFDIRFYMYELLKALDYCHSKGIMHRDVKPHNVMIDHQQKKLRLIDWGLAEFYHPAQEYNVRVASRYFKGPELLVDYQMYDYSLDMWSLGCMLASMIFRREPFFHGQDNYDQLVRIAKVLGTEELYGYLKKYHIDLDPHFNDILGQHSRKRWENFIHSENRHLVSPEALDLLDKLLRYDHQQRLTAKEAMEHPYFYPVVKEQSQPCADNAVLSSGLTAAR
T28 sequence (P15735 whole entry): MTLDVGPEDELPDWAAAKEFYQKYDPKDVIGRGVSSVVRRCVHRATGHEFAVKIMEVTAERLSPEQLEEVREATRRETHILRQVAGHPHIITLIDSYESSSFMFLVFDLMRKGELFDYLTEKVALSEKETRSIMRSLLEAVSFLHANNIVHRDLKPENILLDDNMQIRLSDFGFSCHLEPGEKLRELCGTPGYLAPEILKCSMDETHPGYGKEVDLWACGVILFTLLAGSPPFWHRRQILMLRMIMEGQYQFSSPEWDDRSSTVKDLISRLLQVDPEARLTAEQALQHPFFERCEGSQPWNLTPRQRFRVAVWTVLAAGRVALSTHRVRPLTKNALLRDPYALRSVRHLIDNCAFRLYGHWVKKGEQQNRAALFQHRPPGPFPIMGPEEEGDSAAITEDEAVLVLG
T4 sequence (P27037 20-513): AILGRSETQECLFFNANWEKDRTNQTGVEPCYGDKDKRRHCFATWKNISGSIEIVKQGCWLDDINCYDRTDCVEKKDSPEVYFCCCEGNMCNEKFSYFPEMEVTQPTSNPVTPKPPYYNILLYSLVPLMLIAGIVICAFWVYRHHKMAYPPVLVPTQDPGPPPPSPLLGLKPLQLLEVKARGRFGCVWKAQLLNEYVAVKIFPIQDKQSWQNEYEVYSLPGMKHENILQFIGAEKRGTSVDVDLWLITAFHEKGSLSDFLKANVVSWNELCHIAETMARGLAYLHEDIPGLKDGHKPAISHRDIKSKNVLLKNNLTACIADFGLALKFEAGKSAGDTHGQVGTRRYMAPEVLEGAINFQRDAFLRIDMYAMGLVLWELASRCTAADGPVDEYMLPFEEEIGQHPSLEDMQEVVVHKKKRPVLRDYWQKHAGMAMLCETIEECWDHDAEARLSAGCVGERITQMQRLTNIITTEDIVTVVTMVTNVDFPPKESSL

Cc1ccc(-n2cc(COc3cccc4cnc(Nc5cccc(Cl)c5)nc34)nn2)c([N+](=O)[O-])c1 [DB18]
remaining binding at 1 µM [1]: 97% | remaining binding at 1 µM (ABL1-phosphorylated): 98% | remaining binding at 1 µM (ACVR1): 100% | remaining binding at 1 µM (ACVR2A): 100% | remaining binding at 1 µM (AKT2): 100% | remaining binding at 1 µM (AMPK-alpha2): 91% | remaining binding at 1 µM (BIKE): 99% | remaining binding at 1 µM (CDK2): 100% | remaining binding at 1 µM (CDKL5): 100% | remaining binding at 1 µM (CSNK2A1): 75% | remaining binding at 1 µM (CSNK2A2): 61% | remaining binding at 1 µM (DAPK2): 100% | remaining binding at 1 µM (EGFR(S752-I759del)): 91% | remaining binding at 1 µM (EPHA4): 88% | remaining binding at 1 µM (EPHA7): 100% | remaining binding at 1 µM (FGFR2): 100% | remaining binding at 1 µM (GRK1): 97% | remaining binding at 1 µM (GSK3A): 100% | remaining binding at 1 µM (HIPK1): 19% | remaining binding at 1 µM (IGF1R): 100% | remaining binding at 1 µM (LCK): 100% | remaining binding at 1 µM (MAP3K2): 97% | remaining binding at 1 µM (NEK3): 83% | remaining binding at 1 µM (NEK6): 100% | remaining binding at 1 µM (p38-alpha): 100% | remaining binding at 1 µM (PAK3): 100% | remaining binding at 1 µM (PDPK1): 92% | remaining binding at 1 µM (PHKG2): 95% | remaining binding at 1 µM (PIK3CA(H1047Y)): 96% | remaining binding at 1 µM (PIM1): 100% | remaining binding at 1 µM (PLK1): 100% | remaining binding at 1 µM (RET(V804M)): 96% | remaining binding at 1 µM (RIPK4): 82% | remaining binding at 1 µM (SGK2): 100% | remaining binding at 1 µM (SLK): 100% | remaining binding at 1 µM [2]: 99% | remaining binding at 1 µM [3]: 100% | remaining binding at 1 µM (ULK1): 100% | remaining binding at 1 µM (WEE2): 100% | remaining binding at 1 µM (YSK1): 98% | remaining binding at 1 µM (ZAP70): 100% | IC50 (MCF7): 4 µM
